Assay results as given in US20100298141A1, “SUBSTITUTED PYRIDINE N-OXIDE HERBICIDES” (E. I. DU PONT DE NEMOURS AND COMPANY, priority 2007, published 2010).

What was measured:
barnyardgrass [1] = assay: Test A pre-/postemergence greenhouse test; assay type: in vivo, Echinochloa crus-galli; conditions: for Plant response rating, Barnyardgrass: 0 to 100 scale where 0 is no effect and 100 is complete control; for Barnyardgrass plant response rating: 0 to 100 scale
Summary of the method: (§1)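 Each test compound, dissolved in a non-phytotoxic solvent mixture with surfactant, was sprayed directly onto seeded soil (loam/sand blend) and, at the same moment, onto seedlings carrying one to two leaves. Around ten greenhouse days later, plants were rated visually for injury relative to untreated controls.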

crabgrass [2] = assay: Test A pre-/postemergence greenhouse test; assay type: in vivo, Digitaria sanguinalis; conditions: for Plant response rating, Crabgrass, Large: 0 to 100 scale where 0 is no effect and 100 is complete control; for Crabgrass, Large plant response rating: 0 to 100 scale
Summary of the method: as §1

velvetleaf = assay: Test A pre-/postemergence greenhouse test; assay type: in vivo, Abutilon theophrasti; conditions: for Plant response rating, Velvetleaf: 0 to 100 scale where 0 is no effect and 100 is complete control; for Velvetleaf plant response rating: 0 to 100 scale
Summary of the method: as §1

corn [3] = assay: Test A pre-/postemergence greenhouse test; assay type: in vivo, Zea mays; conditions: for Plant response rating, Corn: 0 to 100 scale where 0 is no effect and 100 is complete control; for Corn plant response rating: 0 to 100 scale
Summary of the method: as §1

green foxtail = assay: Test C pre-/postemergence test; assay type: in vivo, Setaria viridis; conditions: for Plant response rating, Foxtail, Green: 31 g ai/ha, scale 0 to 100 (0 no effect, 100 complete control)
Summary of the method: (§2)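 Test chemicals were formulated with surfactant in a non-phytotoxic solvent and sprayed both on freshly planted seeds (preemergence) and on 1- to 4-leaf plants of 2–18 cm (postemergence). Flooded-paddy pots received compound directly into 3 cm of standing water, maintained for the test.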

Italian ryegrass = assay: Test C pre-/postemergence test; assay type: in vivo, Lolium multiflorum; conditions: for Plant response rating, Ryegrass, Italian: 31 g ai/ha, scale 0 to 100 (0 no effect, 100 complete control)
Summary of the method: as §2

bermudagrass = assay: Test C pre-/postemergence test; assay type: in vivo, Cynodon dactylon; conditions: for Plant response rating, Bermudagrass: 31 g ai/ha
Summary of the method: as §2

corn [4] = assay: Test C pre-/postemergence test; assay type: in vivo, Zea mays; conditions: for Plant response rating, Corn: 31 g ai/ha, scale 0 to 100 (0 no effect, 100 complete control)
Summary of the method: as §2

crabgrass [5] = assay: Test C pre-/postemergence test; assay type: in vivo, Digitaria sanguinalis; conditions: for Plant response rating, Crabgrass, Large: 31 g ai/ha, scale 0 to 100 (0 no effect, 100 complete control)
Summary of the method: as §2

Goosegrass = assay: Test C pre-/postemergence test; assay type: in vivo, Eleusin indica; conditions: for Plant response rating, Goosegrass: 31 g ai/ha, scale 0 to 100 (0 no effect, 100 complete control)
Summary of the method: as §2

johnsongrass = assay: Test C pre-/postemergence test; assay type: in vivo, Sorghum halepense; conditions: for Plant response rating, Johnsongrass: 31 g ai/ha, scale 0 to 100 (0 no effect, 100 complete control)
Summary of the method: as §2

yellow nutsedge = assay: Test C pre-/postemergence test; assay type: in vivo, Cyperus esculentus; conditions: for Plant response rating, Nutsedge, Yellow: 31 g ai/ha, scale 0 to 100 (0 no effect, 100 complete control)
Summary of the method: as §2

pigweed = assay: Test C pre-/postemergence test; assay type: in vivo, Amaranthus retroflexus; conditions: for Plant response rating, Pigweed: 31 g ai/ha, scale 0 to 100 (0 no effect, 100 complete control)
Summary of the method: as §2

soybean = assay: Test C pre-/postemergence test; assay type: in vivo, Glycine max; conditions: for Plant response rating, Soybean: 31 g ai/ha, scale 0 to 100 (0 no effect, 100 complete control)
Summary of the method: as §2

umbrella sedge = assay: Test C flooded paddy test; assay type: in vivo, Cyperus difformis; conditions: Flood
Summary of the method: (§3)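 Compound was added to standing water 3 cm above soil, flood maintained, and plants held in a greenhouse before visual scoring against controls at 13 to 15 days.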

duck salad = assay: Test C flooded paddy test; assay type: in vivo, Heteranthera limosa; conditions: Flood
Summary of the method: as §3

barnyardgrass [6] = assay: Test C flooded paddy test; assay type: in vivo, Echinochloa crus-galli; conditions: Flood
Summary of the method: as §3

[7] = Postemergence, 500 g ai/ha, 0 is no effect, 100 is complete control
[8] = Preemergence, 125 g ai/ha, 0 no effect, 100 complete control
[9] = Preemergence, 500 g ai/ha, 0 no effect, 100 complete control
[10] = 62 g ai/ha, Preemergence, scale 0 to 100
[11] = 125 g ai/ha, preemergence, scale 0 (no effect) to 100 (complete control)
[12] = preemergence, 250 g ai/ha, scale 0 (no effect) to 100 (complete control)
[13] = 62 g ai/ha, Preemergence, scale 0 to 100 (0 no effect, 100 complete control)
[14] = Preemergence, scale 0 to 100 (0 no effect, 100 complete control)
[15] = 62 g ai/ha, scale 0 to 100 (0 no effect, 100 complete control)
[16] = 250 g ai/ha, scale 0 to 100, 0 no effect, 100 complete control, 13 to 15 days

CCc1cc[n+]([O-])c(S(=O)(=O)Cc2c(C(F)(F)F)nn(C)c2OC(F)F)c1 [Compound 102]
Plant response rating, Barnyardgrass (barnyardgrass [1]; Postemergence, 125 g ai/ha): 70
Barnyardgrass plant response rating (barnyardgrass [1]; [7]): 80
Barnyardgrass plant response rating (barnyardgrass [1]; [8]): 80
Barnyardgrass plant response rating (barnyardgrass [1]; [9]): 100
Plant response rating, Crabgrass, Large (crabgrass [2]; Postemergence, 125 g ai/ha): 60
Crabgrass, Large plant response rating (crabgrass [2]; [7]): 90
Crabgrass, Large plant response rating (crabgrass [2]; [8]): 90
Crabgrass, Large plant response rating (crabgrass [2]; [9]): 90
Plant response rating, Velvetleaf (velvetleaf; Postemergence, 125 g ai/ha): 70
Velvetleaf plant response rating (velvetleaf; [7]): 90
Velvetleaf plant response rating (velvetleaf; [8]): 70
Velvetleaf plant response rating (velvetleaf; [9]): 100
Plant response rating, Corn (corn [3]; Postemergence, 125 g ai/ha): 40
Corn plant response rating (corn [3]; [7]): 50
Corn plant response rating (corn [3]; [8]): 0
Corn plant response rating (corn [3]; [9]): 0
Foxtail, Green plant response rating (green foxtail; [10]): 95
Foxtail, Green plant response rating (green foxtail; [11]): 98
Plant response rating, Foxtail, Green (green foxtail; Preemergence): 85
Foxtail, Green plant response rating (green foxtail; [12]): 100
Ryegrass, Italian plant response rating (Italian ryegrass; [10]): 0
Ryegrass, Italian plant response rating (Italian ryegrass; [11]): 0
Plant response rating, Ryegrass, Italian (Italian ryegrass; Preemergence): 0
Ryegrass, Italian plant response rating (Italian ryegrass; [12]): 20
Bermudagrass plant response rating (bermudagrass; [13]): 85
Bermudagrass plant response rating (bermudagrass; [11]): 100
Plant response rating, Bermudagrass (bermudagrass; [14]): 85
Bermudagrass plant response rating (bermudagrass; [12]): 100
Corn plant response rating (corn [4]; [10]): 0
Corn plant response rating (corn [4]; [11]): 0
Plant response rating, Corn (corn [4]; Preemergence): 0
Corn plant response rating (corn [4]; [12]): 0
Crabgrass, Large plant response rating (crabgrass [5]; [10]): 95
Crabgrass, Large plant response rating (crabgrass [5]; [11]): 95
Plant response rating, Crabgrass, Large (crabgrass [5]; Preemergence): 70
Crabgrass, Large plant response rating (crabgrass [5]; [12]): 100
Goosegrass plant response rating (Goosegrass; [10]): 98
Goosegrass plant response rating (Goosegrass; [11]): 100
Plant response rating, Goosegrass (Goosegrass; Preemergence): 85
Goosegrass plant response rating (Goosegrass; [12]): 100
Johnsongrass plant response rating (johnsongrass; [10]): 100
Johnsongrass plant response rating (johnsongrass; [11]): 100
Plant response rating, Johnsongrass (johnsongrass; Preemergence): 70
Johnsongrass plant response rating (johnsongrass; [12]): 100
Nutsedge, Yellow plant response rating (yellow nutsedge; [10]): 50
Nutsedge, Yellow plant response rating (yellow nutsedge; [11]): 50
Plant response rating, Nutsedge, Yellow (yellow nutsedge; Preemergence): 0
Nutsedge, Yellow plant response rating (yellow nutsedge; [12]): 85
Pigweed plant response rating (pigweed; [10]): 95
Pigweed plant response rating (pigweed; [11]): 100
Plant response rating, Pigweed (pigweed; Preemergence): 60
Pigweed plant response rating (pigweed; [12]): 100
Soybean plant response rating (soybean; [11]): 65
Plant response rating, Soybean (soybean; Preemergence): 50
Soybean plant response rating (soybean; [12]): 80
Plant response rating, Sedge, Umbrella (umbrella sedge; [15]): 0
Plant response rating, Sedge, Umbrella (umbrella sedge; [16]): 70
Plant response rating, Ducksalad (duck salad; [15]): 0
Plant response rating, Ducksalad (duck salad; [16]): 80
Plant response rating, Barnyardgrass (barnyardgrass [6]; [15]): 0
Plant response rating, Barnyardgrass (barnyardgrass [6]; [16]): 0

CC(Oc1c(C[S+]([O-])c2ccc(Cl)c[n+]2[O-])c(C(F)(F)F)nn1C)C(F)(F)F (stereo not drawn) [Compound 87]
Plant response rating, Barnyardgrass (barnyardgrass [1]; Postemergence, 125 g ai/ha): 80
Barnyardgrass plant response rating (barnyardgrass [1]; [7]): 90
Barnyardgrass plant response rating (barnyardgrass [1]; [8]): 90
Plant response rating, Barnyardgrass (barnyardgrass [1]; Preemergence, 500 g ai/ha): 100
Plant response rating, Crabgrass, Large (crabgrass [2]; Postemergence, 125 g ai/ha): 80
Crabgrass, Large plant response rating (crabgrass [2]; [7]): 90
Crabgrass, Large plant response rating (crabgrass [2]; [8]): 90
Plant response rating, Crabgrass, Large (crabgrass [2]; Preemergence, 500 g ai/ha): 100
Plant response rating, Velvetleaf (velvetleaf; Postemergence, 125 g ai/ha): 70
Velvetleaf plant response rating (velvetleaf; [7]): 80
Velvetleaf plant response rating (velvetleaf; [8]): 80
Velvetleaf plant response rating (velvetleaf; [9]): 100
Plant response rating, Corn (corn [3]; Postemergence, 125 g ai/ha): 60
Corn plant response rating (corn [3]; [7]): 70
Corn plant response rating (corn [3]; [8]): 40
Plant response rating, Corn (corn [3]; Preemergence, 500 g ai/ha): 90
Foxtail, Green plant response rating (green foxtail; [10]): 100
Foxtail, Green plant response rating (green foxtail; [11]): 100
Plant response rating, Foxtail, Green (green foxtail; Preemergence): 95
Foxtail, Green plant response rating (green foxtail; [12]): 100
Ryegrass, Italian plant response rating (Italian ryegrass; [10]): 95
Ryegrass, Italian plant response rating (Italian ryegrass; [11]): 100
Plant response rating, Ryegrass, Italian (Italian ryegrass; Preemergence): 95
Ryegrass, Italian plant response rating (Italian ryegrass; [12]): 100
Bermudagrass plant response rating (bermudagrass; [13]): 100
Bermudagrass plant response rating (bermudagrass; [11]): 100
Plant response rating, Bermudagrass (bermudagrass; [14]): 100
Bermudagrass plant response rating (bermudagrass; [12]): 100
Corn plant response rating (corn [4]; [10]): 95
Corn plant response rating (corn [4]; [11]): 95
Plant response rating, Corn (corn [4]; Preemergence): 85
Corn plant response rating (corn [4]; [12]): 98
Crabgrass, Large plant response rating (crabgrass [5]; [10]): 95
Crabgrass, Large plant response rating (crabgrass [5]; [11]): 100
Plant response rating, Crabgrass, Large (crabgrass [5]; Preemergence): 80
Crabgrass, Large plant response rating (crabgrass [5]; [12]): 100
Goosegrass plant response rating (Goosegrass; [10]): 100
Goosegrass plant response rating (Goosegrass; [11]): 100
Plant response rating, Goosegrass (Goosegrass; Preemergence): 98
Goosegrass plant response rating (Goosegrass; [12]): 100
Johnsongrass plant response rating (johnsongrass; [10]): 100
Johnsongrass plant response rating (johnsongrass; [11]): 100
Plant response rating, Johnsongrass (johnsongrass; Preemergence): 90
Johnsongrass plant response rating (johnsongrass; [12]): 100
Nutsedge, Yellow plant response rating (yellow nutsedge; [10]): 50
Nutsedge, Yellow plant response rating (yellow nutsedge; [11]): 80
Plant response rating, Nutsedge, Yellow (yellow nutsedge; Preemergence): 50
Nutsedge, Yellow plant response rating (yellow nutsedge; [12]): 100
Pigweed plant response rating (pigweed; [10]): 75
Pigweed plant response rating (pigweed; [11]): 95
Plant response rating, Pigweed (pigweed; Preemergence): 10
Pigweed plant response rating (pigweed; [12]): 100
Soybean plant response rating (soybean; [10]): 65
Soybean plant response rating (soybean; [11]): 80
Plant response rating, Soybean (soybean; Preemergence): 65
Soybean plant response rating (soybean; [12]): 80
Plant response rating, Sedge, Umbrella (umbrella sedge; [15]): 60
Plant response rating, Sedge, Umbrella (umbrella sedge; [16]): 95
Plant response rating, Ducksalad (duck salad; [15]): 50
Plant response rating, Ducksalad (duck salad; [16]): 100
Plant response rating, Barnyardgrass (barnyardgrass [6]; [15]): 30
Plant response rating, Barnyardgrass (barnyardgrass [6]; [16]): 90
